# Biological target: T1, EFA6R (GFP-EFA6R), isoform B (Homo sapiens, UniProt Q9NYI0)
# T1 construct: gene PSD3; full-length isoform B, N-terminal GFP tag (pEGFPC2), transiently expressed in COS7 cells, lysate used; endogenous protein runs at 56 kDa
# Assay: competition pulldown: displacement from biotinylated PI-avidin beads by soluble diC8 lipid, immunoblot densitometry
# Details: concentration blocking 50% of binding to PI 4,5-P2 beads (in the methods PI 3,4-P2 beads); cell lysate, pH 7.4, 150 mM NaCl, 0.5% Nonidet P-40, 4 °C; PH domain; read-out: EC50 (the source's name)
# T1 sequence (Q9NYI0 1-513 isoform Q9NYI0-3 limits assumed): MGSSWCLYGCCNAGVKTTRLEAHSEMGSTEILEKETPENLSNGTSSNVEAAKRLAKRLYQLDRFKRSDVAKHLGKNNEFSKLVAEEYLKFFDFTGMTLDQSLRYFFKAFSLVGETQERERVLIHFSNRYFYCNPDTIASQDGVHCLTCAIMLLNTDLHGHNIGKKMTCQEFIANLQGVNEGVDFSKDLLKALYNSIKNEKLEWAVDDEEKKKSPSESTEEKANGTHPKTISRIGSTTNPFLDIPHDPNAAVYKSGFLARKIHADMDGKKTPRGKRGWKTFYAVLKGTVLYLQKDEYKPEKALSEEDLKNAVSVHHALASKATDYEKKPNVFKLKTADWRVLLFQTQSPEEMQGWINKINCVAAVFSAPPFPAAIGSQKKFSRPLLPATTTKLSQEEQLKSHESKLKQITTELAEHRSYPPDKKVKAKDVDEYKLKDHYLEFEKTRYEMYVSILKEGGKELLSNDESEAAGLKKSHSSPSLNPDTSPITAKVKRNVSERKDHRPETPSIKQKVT
row,IC50,SMILES
1,> 10 µM,"CCCCCCCC(=O)OC[C@H](COP(=O)(O)O[C@H]1[C@H](O)[C@@H](OP(=O)(O)O)[C@H](OP(=O)(O)O)[C@@H](OP(=O)(O)O)[C@H]1O)OC(=O)CCCCCCC [PI 3,4,5-trisphosphate]"
2,> 10 µM,"CCCCCCCC(=O)OC[C@H](COP(=O)(O)O[C@H]1[C@H](O)[C@@H](O)[C@H](OP(=O)(O)O)[C@@H](OP(=O)(O)O)[C@H]1O)OC(=O)CCCCCCC [PI 3,4-P2]"
3,> 10 µM,CCCCCCCC(=O)OC[C@H](COP(=O)(O)O[C@@H]1[C@H](O)[C@H](OP(=O)(O)O)[C@@H](O)[C@H](O)[C@H]1O)OC(=O)CCCCCCC [PI 3-phosphate]
4,1.1 µM,"CCCCCCCC(=O)OC[C@H](COP(=O)(O)O[C@@H]1[C@H](O)[C@H](O)[C@@H](OP(=O)(O)O)[C@H](OP(=O)(O)O)[C@H]1O)OC(=O)CCCCCCC [PI 4,5-P2]"

# Source: article PMC4246094, “Exchange Factor EFA6R Requires C-terminal Targeting to the Plasma Membrane to Promote Cytoskeletal Rearrangement through the Activation of ADP-ribosylation Factor 6 (ARF6)” (The Journal of Biological Chemistry, 2014)
